This experiment relates to U87MG cells. As to the kind of experiment: Cellular assay, inhibition of 2-HG production in U87MG cells. The format is cell-based. Conditions: Homo sapiens, U-87 MG, 48 h. The method, boiled down:
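HT1080 or U87MG cells (U87MG kept with 500 ug/mL G418) seeded at 5000 cells/well and treated with compound at 0.2% final DMSO. Incubated 48 h at 37 °C. 2-HG inhibition determined by LC-MS. Viability read by CellTiter-Glo luminescence at 72 h post-dose.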

Molecules are shown by their SMILES.

For `O=C(NC1CCC(F)(F)CC1)[C@H](c1ccccc1Cl)N(C(=O)[C@@H]1COC(=O)N1c1ncccn1)c1cccc(F)c1` [Compound 76, (S)—N—((S)-1-(2-Chlorophenyl)-2-((4,4-difluorocyclohexyl)amino)-2-oxoethyl)-N-(3-fluoro-phenyl)-2-oxo-3-(pyrimidin-2-yl)oxazolidine-4-carboxamide], the IC50 is less than 100 nM.

`N#Cc1ccnc(N2C(=O)[C@H](O)C[C@H]2C(=O)N(c2cc(F)cc(F)c2)[C@@H](C(=O)NC2CCC(F)(F)CC2)c2ccccc2Cl)n1` [Compound 126, (2S,4R)—N—((R)-1-(2-Chlorophenyl)-2-(4,4-difluorocyclohexylamino)-2-oxoethyl)-1-(4-cyanopyrimidin-2-yl)-N-(3,5-difluorophenyl)-4-hydroxy-5-oxopyrrolidine-2-carboxamide] showed an IC50 of 100 to 500 nM.

As to `N#Cc1ccnc(N2C(=O)OCC[C@H]2C(=O)N(c2cc(F)cc(F)c2)[C@H](C(=O)NC2CC(F)(F)C2)c2ccccc2Cl)n1` [Compound 154, (S)—N—((S)-1-(2-Chlorophenyl)-2-((3,3-difluorocyclobutyl)amino)-2-oxoethyl)-3-(4-cyanopyrimidin-2-yl)-N-(3,5-difluorophenyl)-2-oxo-1,3-oxazinane-4-carboxamide], the IC50 is less than 100 nM.

For `N#Cc1ccnc(N2C(=O)OCC[C@H]2C(=O)N(c2cccc(F)c2)C(C(=O)NC2CC(F)(F)C2)c2ccccc2Cl)c1` (mixture of isomers) [Compound 90, (4S)—N-(1-(2-Chlorophenyl)-2-(3,3-difluorocyclobutylamino)-2-oxoethyl)-3-(4-cyanopyridin-2-yl)-N-(3-fluorophenyl)-2-oxo-1,3-oxazinane-4-carboxamide], the IC50 was less than 100 nM.

`N#Cc1cccc(N(C(=O)[C@@H]2CCC(=O)N2c2nccc(C#N)n2)[C@H](C(=O)NC2CC(F)(F)C2)c2ccccc2Cl)c1` [Compound 167, (S)—N—((S)-1-(2-Chlorophenyl)-2-((3,3-difluorocyclobutyl)amino)-2-oxoethyl)-N-(3-cyanophenyl)-1-(4-cyanopyrimidin-2-yl)-5-oxopyrrolidine-2-carboxamide] yielded an IC50 of less than 100 nM.

`N#Cc1cc(F)cc(N(C(=O)[C@@H]2CCC(=O)N2c2nccc(C#N)n2)[C@H](C(=O)NC2CCC(F)(F)CC2)c2ccccc2Cl)c1` [Compound 185, (S)—N—((S)-1-(2-Chlorophenyl)-2-((4,4-difluorocyclohexyl)amino)-2-oxoethyl)-N-(3-cyano-5-fluorophenyl)-1-(4-cyanopyrimidin-2-yl)-5-oxopyrrolidine-2-carboxamide] yielded an IC50 of less than 100 nM.

As to `N#Cc1ccnc(N2C(=O)NC[C@H]2C(=O)N(c2cccc(F)c2)[C@H](C(=O)NC2CC(F)(F)C2)c2ccccc2Cl)c1` [Compound 80, (S)—N—((S)-1-(2-chlorophenyl)-2-(3,3-difluorocyclobutylamino)-2-oxoethyl)-3-(4-cyanopyridin-2-yl)-N-(3-fluorophenyl)-2-oxoimidazolidine-4-carboxamide], the IC50 was less than 100 nM.

With `O=C(NC1CC(F)(F)C1)[C@H](c1ccccc1Cl)N(C(=O)[C@@H]1CCC(=O)N1c1cnccn1)c1cccc(F)c1` [Compound 18], the IC50 was less than 100 nM.

The compound `N#Cc1ccnc(N2C(=O)[C@H](O)C[C@H]2C(=O)N(c2cccc(F)c2)[C@H](C(=O)NC2CC(F)(F)C2)c2ccccc2Cl)c1` [Compound 113, (2S,4R)—N—((S)-1-(2-Chlorophenyl)-2-(3,3-difluorocyclobutylamino)-2-oxoethyl)-1-(4-cyano-pyridin-2-yl)-N-(3-fluorophenyl)-4-hydroxy-5-oxopyrrolidine-2-carboxamide] gave an IC50 of less than 100 nM.

As for `N#Cc1ccnc(N2C(=O)OCC[C@H]2C(=O)N(c2cncc(F)c2)[C@H](C(=O)NC2CC(F)(F)C2)c2ccccc2Cl)c1` [Compound 143, (S)—N—((S)-1-(2-Chlorophenyl)-2-((3,3-difluorocyclobutyl)amino)-2-oxoethyl)-3-(4-cyanopyridin-2-yl)-N-(5-fluoropyridin-3-yl)-2-oxo-1,3-oxazinane-4-carboxamide], the IC50 was less than 100 nM.

The compound `N#Cc1ccnc(N2C(=O)CC[C@H]2C(=O)N(c2cc(F)cc(F)c2)[C@H](C(=O)NC2CCC(F)(F)CC2)c2ccccc2Cl)n1` [Compound 87, (S)—N—((S)-1-(2-Chlorophenyl)-2-((4,4-difluorocyclohexyl)amino)-2-oxoethyl)-1-(4-cyanopyrimidin-2-yl)-N-(3,5-difluorophenyl)-5-oxopyrrolidine-2-carboxamide] yielded an IC50 of less than 100 nM.

The compound `N#Cc1ccnc(N2C(=O)[C@H](O)C[C@H]2C(=O)N(c2cc(F)cc(F)c2)[C@@H](C(=O)NC2CC(F)(F)C2)c2ccccc2Cl)c1` [Compound 114, (2S,4R)—N—((R)-1-(2-Chlorophenyl)-2-((3,3-difluorocyclobutyl)amino)-2-oxoethyl)-1-(4-cyanopyridin-2-yl)-N-(3,5-difluorophenyl)-4-hydroxy-5-oxopyrrolidine-2-carboxamide] had an IC50 of less than 100 nM.

Compound `N#Cc1ccnc(N2C(=O)CC[C@H]2C(=O)N(c2ccccc2F)[C@H](C(=O)NC2CC(F)(F)C2)c2ccccc2Cl)c1` [Compound 187, (S)—N—((S)-1-(2-Chlorophenyl)-2-((3,3-difluorocyclobutyl)amino)-2-oxoethyl)-1-(4-cyanopyridin-2-yl)-N-(2-fluorophenyl)-5-oxopyrrolidine-2-carboxamide] had an IC50 of less than 100 nM.

`O=C(NC1CC(F)(F)C1)[C@H](c1ccccc1Cl)N(C(=O)[C@@H]1CCC(=O)N1c1cc(Cl)ccn1)c1cccc(F)c1` [Compound 33] showed a 50% inhibitory concentration (IC50) of 100 to 500 nM.

As to `N#Cc1cc(F)cc(N(C(=O)[C@@H]2C[C@@H](O)C(=O)N2c2cc(C#N)ccn2)C(C(=O)NC2CC(F)(F)C2)c2ccccc2Cl)c1` (mixture of isomers) [Compound 169, (2S,4R)—N-(1-(2-Chlorophenyl)-2-(3,3-difluorocyclobutylamino)-2-oxoethyl)-N-(3-cyano-5-fluorophenyl)-1-(4-cyanopyridin-2-yl)-4-hydroxy-5-oxopyrrolidine-2-carboxamide], the IC50 was less than 100 nM.

Compound `CC(C)(C)OC(=O)N1CC(=O)N(c2nccc(C#N)n2)[C@H](C(=O)N(c2cc(F)cc(F)c2)[C@H](C(=O)NC2CC(F)(F)C2)c2ccccc2Cl)C1` [Compound 98, (3S)-tert-butyl 3-((1-(2-chlorophenyl)-2-((3,3-difluorocyclobutyl)amino)-2-oxoethyl)(3,5-difluorophenyl)carbamoyl)-4-(4-cyanopyrimidin-2-yl)-5-oxopiperazine-1-carboxylate] displayed an IC50 of less than 100 nM.

`CN1C[C@@H](C(=O)N(c2cccc(F)c2)C(C(=O)NC2CC(F)(F)C2)c2ccccc2Cl)N(c2cc(C#N)ccn2)C1=O` (stereo partly drawn) [Compound 79, (4S)—N-(1-(2-chlorophenyl)-2-((3,3-difluorocyclobutyl)amino)-2-oxoethyl)-3-(4-cyanopyridin-2-yl)-N-(3-fluorophenyl)-1-methyl-2-oxoimidazolidine-4-carboxamide] displayed a half-maximal inhibitory concentration (IC50) of less than 100 nM.

For the compound `N#Cc1ccnc(N2C(=O)CC[C@H]2C(=O)N(c2cccc(F)c2)[C@H](C(=O)NC2CC(F)(F)C2)c2ccccc2Cl)n1` [Compound 68, (S)—N—((S)-1-(2-Chlorophenyl)-2-((3,3-difluorocyclobutyl)amino)-2-oxoethyl)-1-(4-cyanopyrimidin-2-yl)-N-(3-fluorophenyl)-5-oxopyrrolidine-2-carboxamide], the IC50 is less than 100 nM.

The compound `N#Cc1ccnc(N2C(=O)OCC[C@H]2C(=O)N(c2cc(F)cc(F)c2)[C@H](C(=O)NC2CCC(F)(F)CC2)c2ccccc2Cl)c1` [Compound 139, (S)—N—((S)-1-(2-Chlorophenyl)-2-((4,4-difluorocyclohexyl)amino)-2-oxoethyl)-3-(4-cyanopyridin-2-yl)-N-(3,5-difluorophenyl)-2-oxo-1,3-oxazinane-4-carboxamide] gave an IC50 of less than 100 nM.

As for `N#Cc1ccnc(N2C(=O)OCC[C@H]2C(=O)N(c2cc(F)cc(F)c2)[C@H](C(=O)NC2CCC(F)(F)CC2)c2ccccc2Cl)n1` [Compound 144, (S)—N—((S)-1-(2-Chlorophenyl)-2-((4,4-difluorocyclohexyl)amino)-2-oxoethyl)-3-(4-cyanopyrimidin-2-yl)-N-(3,5-difluorophenyl)-2-oxo-1,3-oxazinane-4-carboxamide], the IC50 was less than 100 nM.

Consider `N#Cc1ccnc(N2C(=O)CC[C@H]2C(=O)N(c2cncc(F)c2)[C@H](C(=O)NC2CC(F)(F)C2)c2ccccc2)c1` [Compound 147, (S)-1-(4-Cyanopyridin-2-yl)-N—((S)-2-((3,3-difluorocyclobutyl)amino)-2-oxo-1-phenylethyl)-N-(5-fluoropyridin-3-yl)-5-oxopyrrolidine-2-carboxamide], for which the IC50 is less than 100 nM.

Regarding `N#Cc1ccnc(N2C(=O)CC[C@H]2C(=O)N(c2cccc(F)c2)[C@H](C(=O)NC2CC(F)(F)C2)c2ccccc2F)c1` [Compound 149, (S)-1-(4-Cyanopyridin-2-yl)-N—((S)-2-((3,3-difluorocyclobutyl)amino)-1-(2-fluorophenyl)-2-oxoethyl)-N-(3-fluorophenyl)-5-oxopyrrolidine-2-carboxamide], the IC50 is less than 100 nM.

Compound `N#Cc1ccnc(N2C(=O)CC[C@H]2C(=O)N(c2cccc(F)c2)[C@H](C(=O)NC2CCC(F)(F)CC2)c2ccccc2Cl)c1F` [Compound 83, (S)—N—((S)-1-(2-Chlorophenyl)-2-((4,4-difluorocyclohexyl)amino)-2-oxoethyl)-1-(4-cyano-3-fluoropyridin-2-yl)-N-(3-fluorophenyl)-5-oxopyrrolidine-2-carboxamide] gave an IC50 of less than 100 nM.

In turn, `[2H]c1c([2H])c([2H])c([C@@H](C(=O)NC2CC(F)(F)C2)N(C(=O)[C@@H]2CCC(=O)N2c2cc(C#N)ccn2)c2cc(F)cc(F)c2)c(Cl)c1[2H]` [Compound 163] registered an IC50 of less than 100 nM.

As usually defined, the IC50 is the point on the concentration scale where inhibition reaches its midpoint. Low readings indicate higher potency, high ones lower potency.

Source of the values: patent publication US10689414B2 (Agios Pharmaceuticals, Inc., priority 2013, dated 2020).
